Laboratory results as given in patent EP0399814A2, “Phenol derivatives for promoting human nerve growth factor” (Sankyo Company Limited, priority 1989, dated 1990).

Test system: L-M cells
Assay: NGF production and secretion by L-M cells (Furukawa method), NGF level in medium determined by enzyme immunoassay
Assay type: cell-based, mouse
Details: L-M cells cultured 24 hours, NGF amount relative to cells not treated with test compound; for % Control / activity at 10 µg/mL: compounds of the invention at 10 γ/ml; for activity at 10 µg/mL / activity at 20 µg/mL: Mus musculus, read-out: % Control; for activity at 20 µg/mL: known compounds at 20 γ/ml
Excerpt: Furukawa et al. reported that L-M cells of a fibroblast cell line from mouse connective tissue can produce and secrete a relatively large amount of NGF, and that catecholamines accelerate such production and secretion of NGF (J. Biol. Chem., 261, 6039-6047, 1986). Following the test method described in this Furukawa paper, but using the compounds of the invention and recognized NGF promoters epinephrine, isoproterenol, L-DOPA, and caffeic acid, NGF production and secretion activities were examined. The test compounds of this invention were employed at 10 γ/ml, and the known compounds were employed at 20 γ/ml.
Culture medium 199 containing 0.5% peptone was used for culturing L-M cells (for the culture medium 199, see, for instance, Morgan et al., Proc. Soc. Exp. Biol. Med., 73, 1 (1950) or Morgan et al. J. Natl. Cancer Inst., 16, 557 (1955). About 5 x 10⁴ of L-M cells were placed in each well of a culture plate with 24 wells, and cultured using a CO₂ incubator (37°C, 5% CO₂) until confluence. After removing the culture medium, the cultured cells were washed once with 199 culture medium containing 0.5% bovine serum albumin (Fraction V, Sigma). The test compounds were added to a specified concentration to a 199 culture medium containing 0.5% bovine serum albumin, and treated with 0.5 ml of L-M cells. After culturing the L-M cells in a CO₂ incubator for 24 hours, the medium was recovered and the NGF level was determined.
NGF was determined using an enzyme immunoassay (Korshing and Thoenen, Proc. Natl. Acad. Sci. USA, 80, 3513-3516, 1983). A solution (each 75 µl) of anti-mouse β-NGF antibody (0.3 µg/ml, pH 9.6; Boehringer Mannheim) was pipetted into each well of a polystyrene plate with 96 wells. After allowing the plate to stand at room temperature for an hour, the antibody was removed by washing three times with detergent solution. A solution (50 µl) of standard β-NGF (Wako Pure Chemical Industries Ltd.) or the recovered medium (50 µl) for each of the test compounds was pipetted into each well. After allowing the plate to stand at room temperature for 6 - 8 hours, the standard β-NGF or test solution was removed and each well was washed three times. A solution (50 µl) of β-NGF monoclonal antibody (100 mU/ml, pH 7.0; Boehringer Mannheim) labelled with β-galactosidase was pipetted into each well. After allowing the plate to stand at 4°C for 15 - 18 hours, enzyme labelled antibody was removed and the wells washed three times followed by pipetting a solution (100 µl) of chlorophenol red-β-D-galactopyranoside (1 mg/ml, pH 7.3; Boehringer Mannheim) into each well. Colour was allowed to develop (2 - 3 hours at room temperature), and the absorbance was determined at 570 nm. The amount of NGF was calculated from a standard curve. The results are expressed as a relative value (%) which is relative to the amount of NGF produced and secreted by cells treated not with the test compounds. The numerical values (% control) are expressed by the mean value in the 3 wells of the control (without addition of the test compounds).

Structure (SMILES)	activity at 10 µg/mL [%]	activity at 20 µg/mL [%]	further results
CC(=O)Oc1ccc(CCC(=O)Nc2cc(Cl)ccc2Cl)cc1OC(C)=O [Example 1, N-(2,5-dichlorophenyl)-3,4-diacetoxyphenylpropionamide]			% Control: 201%
CC(=O)Oc1ccc(CCCC(=O)NC23CC4CC(CC(C4)C2)C3)cc1OC(C)=O [Example 46, N-(1-adamantyl)-3,4-diacetoxyphenylbutyrylamide]			% Control: 939%
CC(=O)Oc1cc2c(cc1OC(C)=O)CC(C(=O)Nc1ccc(Cl)cc1Cl)CC2 (centres unmarked) [Example 91, N-(2,4-dichlorophenyl)-6,7-diacetoxy-1,2,3,4-tetrahydro-2-naphthamide]	575		
CC(=O)Oc1cc2c(cc1OC(C)=O)CC(C(=O)NC13CC4CC(CC(C4)C1)C3)CC2 (centres unmarked) [Example 93, N-(1-adamantyl)-6,7-diacetoxy-1,2,3,4-tetrahydro-2-naphthamide]	941		
CC(=O)Oc1cc2c(cc1OC(C)=O)CCC(C(=O)Nc1ccc(Cl)cc1Cl)=C2 [Example 94, N-(2,4-dichlorophenyl)-6,7-diacetoxy-3,4-dihydro-2-naphthamide]	459		
CC(=O)Oc1cc2c(cc1OC(C)=O)CCC(C(=O)Nc1cnc3ccccc3c1)=C2 [Example 95, N-(3-quinolyl)-6,7-diacetoxy-3,4-dihydro-2-naphthamide]	341		
CC(=O)Oc1cc2c(cc1OC(C)=O)CCC(C(=O)NC13CC4CC(CC(C4)C1)C3)=C2 [Example 96, N-(1-adamantyl)-6,7-diacetoxy-3,4-dihydro-2-naphthamide]	558		
N[C@@H](Cc1ccc(O)c(O)c1)C(=O)O [L-DOPA, reference compound]		117 ± 7	
O=C(O)/C=C/c1ccc(O)c(O)c1 [caffeic Acid, caffeic acid, reference compound]		123 ± 14	
CNC[C@H](O)c1ccc(O)c(O)c1 [epinephrine, reference compound]		140 ± 24	
CC(C)NCC(O)c1ccc(O)c(O)c1 (centres unmarked) [isoproterenol, reference compound]		168 ± 22	
